From article PMC4279406, “Simultaneous targeting of PI3Kδ and a PI3Kδ-dependent MEK1/2-Erk1/2 pathway for therapy in pediatric B-cell acute lymphoblastic leukemia” (Oncotarget, 2014)

What was measured:
PI3Kβ = biological target: T1, PI3Kβ (Homo sapiens, UniProt P42338); assay: Kinase Profiler lipid kinase IC50; assay type: biochemical; settings: ATP at Km of the isoform; 10-point half-log dilution from 1000 nM
T1 construct: purchased Millipore (Kinase Profiler Services, United Kingdom)
Experimental: Figure 1 Structure of X-370 and its inhibitory activity against lipid kinases (A) Chemical structure of X-370. (B) X-370 docked to the crystal structure of PI3Kδ. The model was generated based on the co-crystal structure of PI3Kδ and ZSTK474 (PDB ID: 2WXL). (C) IC50 of X-370 against PI3Kδ increased along with ATP concentration. […] Data was obtained from Kinase Profiler Services (Millipore, United Kingdom). Briefly, X-370 was solved in DMSO at a concentration of 10 mM, 10-point kinase inhibitory activity was measured over concentrations in a half-log dilution series started at 1000 nM with ATP at a concentration consistent with Km of each isoform of class I PI3K and IC50s were calculated. Relative kinase activity in the presence of 10 μM X-370 compared to DMSO control was measured for the rest of lipid kinases. TEXT PRINTED IN THE PICTURE: (D) X-370: IC50 (nM): 7 (Isoform: PI3Kδ); IC50 (nM): 433 (Isoform: PI3Kα); IC50 (nM): >1,000 (Isoform: PI3Kγ); IC50 (nM): >1,000 (Isoform: PI3Kβ); Relative Activity (%) X-370 (10 μM): 55 (Lipid Kinases: PI3KC2α); Relative Activity (%) X-370 (10 μM): 63 (Lipid Kinases: PI3KC2γ); Relative Activity (%) X-370 (10 μM): 105 (Lipid Kinases: PIP4K2α); Relative Activity (%) X-370 (10 μM): 100 (Lipid Kinases: PIP5K1α); Relative Activity (%) X-370 (10 μM): 103 (Lipid Kinases: PIP5K1γ) DOUBTS OF THE COPYIST ABOUT THIS PICTURE: Panel D, left table (Isoform / IC50): no substance label is printed in this table; assigned to X-370, the only label printed in the panel (head of the right table)
In vitro kinase profile assays were analyzed by the Kinase Profiler Service (Millipore, United Kingdom) following its guidelines. A GST-tagged human p110δ and regulatory full-length p85 were co-expressed in insect cell Sf9. Recombinant protein was extracted by affinity purification. The PI3K kinase activity was determined in the increasing concentration of ATP and X-370 with PI3-Kinase HTRF™ Assay kit (Millipore) as described previously.

[1] = tested on: PI3KC2α, PI3KC2γ, PIP4K2α, PIP5K1α and PIP5K1γ; assay: Selectivity against other lipid kinases; assay type: biochemical
Text: Utilizing the crystal structure of PI3Kδ, we designed and synthesized a series of compounds in an effort to discover new potent and selective PI3Kδ inhibitors, which bind to PI3Kδ differently from CAL-101. […] The benzimidazole group of X-370 extends into the affinity pocket, where its nitrogen acts as a hydrogen bond acceptor for the primary amine of Lys779. The difluoromethyl group of X-370 points toward Pro758 in the hydrophobic affinity pocket. Instead of wedging between Met752 and Trp760, a binding mode utilized by CAL-101 to generate specificity against PI3Kδ (Figure S1), the pyrrole group of X-370 presses tightly against Trp760. These specific interactions of X-370 with p110δ confer a selective and potent inhibition of PI3Kδ. As expected, X-370 inhibited the kinase activity of PI3Kδ in an ATP-competitive manner, with IC50 increasing in concert with ATP levels (Figure 1C), confirming the binding of X-370 in the ATP pocket. […] More than 1000-fold selectivity was seen against other lipid kinases tested including PI3KC2α, PI3KC2γ, PIP4K2α, PIP5K1α and PIP5K1γ. […]
Figure 1 Structure of X-370 and its inhibitory activity against lipid kinases (A) Chemical structure of X-370. […] Relative kinase activity in the presence of 10 μM X-370 compared to DMSO control was measured for the rest of lipid kinases. […]

T1 sequence (P42338 whole entry, canonical isoform): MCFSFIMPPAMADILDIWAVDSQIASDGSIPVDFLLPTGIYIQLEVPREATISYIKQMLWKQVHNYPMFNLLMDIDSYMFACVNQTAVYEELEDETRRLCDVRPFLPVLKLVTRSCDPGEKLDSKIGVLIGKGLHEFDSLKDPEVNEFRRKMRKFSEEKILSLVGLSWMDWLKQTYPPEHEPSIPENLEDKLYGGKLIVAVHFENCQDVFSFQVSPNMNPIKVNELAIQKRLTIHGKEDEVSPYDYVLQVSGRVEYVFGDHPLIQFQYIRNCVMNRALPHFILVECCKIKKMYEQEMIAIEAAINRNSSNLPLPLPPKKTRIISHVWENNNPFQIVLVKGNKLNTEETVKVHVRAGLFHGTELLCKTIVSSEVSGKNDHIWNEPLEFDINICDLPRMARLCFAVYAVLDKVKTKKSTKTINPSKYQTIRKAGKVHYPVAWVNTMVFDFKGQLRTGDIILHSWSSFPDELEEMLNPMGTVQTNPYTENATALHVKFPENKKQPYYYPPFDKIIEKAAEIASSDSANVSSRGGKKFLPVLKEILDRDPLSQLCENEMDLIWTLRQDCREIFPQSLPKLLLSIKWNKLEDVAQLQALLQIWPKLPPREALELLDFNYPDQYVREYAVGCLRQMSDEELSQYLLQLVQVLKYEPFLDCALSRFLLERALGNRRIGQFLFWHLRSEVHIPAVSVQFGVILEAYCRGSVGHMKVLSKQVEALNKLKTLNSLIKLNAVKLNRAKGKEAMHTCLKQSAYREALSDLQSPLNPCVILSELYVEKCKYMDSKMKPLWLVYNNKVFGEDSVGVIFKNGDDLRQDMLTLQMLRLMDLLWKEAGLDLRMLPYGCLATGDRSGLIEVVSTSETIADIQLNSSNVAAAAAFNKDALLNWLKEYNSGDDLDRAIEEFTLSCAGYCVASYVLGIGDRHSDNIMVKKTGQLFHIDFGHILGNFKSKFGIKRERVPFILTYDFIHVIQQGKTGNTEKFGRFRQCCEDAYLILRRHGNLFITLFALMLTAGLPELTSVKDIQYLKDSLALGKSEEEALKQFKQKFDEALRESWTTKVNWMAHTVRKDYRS
T1 sequence (P27986 whole entry partner, canonical isoform): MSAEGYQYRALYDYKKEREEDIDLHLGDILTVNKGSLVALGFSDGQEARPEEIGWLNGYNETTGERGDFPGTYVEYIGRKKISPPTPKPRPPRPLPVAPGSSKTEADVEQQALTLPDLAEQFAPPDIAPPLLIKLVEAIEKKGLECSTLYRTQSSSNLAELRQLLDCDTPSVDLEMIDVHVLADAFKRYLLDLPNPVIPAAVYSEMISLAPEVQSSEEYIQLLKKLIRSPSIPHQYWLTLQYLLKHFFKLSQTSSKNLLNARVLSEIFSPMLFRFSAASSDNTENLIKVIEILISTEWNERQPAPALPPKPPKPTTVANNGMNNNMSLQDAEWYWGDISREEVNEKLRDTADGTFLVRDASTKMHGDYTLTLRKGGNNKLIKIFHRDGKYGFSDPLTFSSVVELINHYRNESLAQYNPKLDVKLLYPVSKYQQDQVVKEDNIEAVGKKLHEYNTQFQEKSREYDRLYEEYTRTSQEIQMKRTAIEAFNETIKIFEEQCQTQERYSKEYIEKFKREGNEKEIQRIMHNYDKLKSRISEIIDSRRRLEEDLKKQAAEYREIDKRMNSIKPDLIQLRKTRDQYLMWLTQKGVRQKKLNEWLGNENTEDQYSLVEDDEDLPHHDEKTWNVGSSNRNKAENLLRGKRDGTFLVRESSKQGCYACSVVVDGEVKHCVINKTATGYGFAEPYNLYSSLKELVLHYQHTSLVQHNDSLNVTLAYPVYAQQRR

SMILES: O=C(N1CCCC1)N1CCC(n2cnc3c(-n4c(C(F)F)nc5ccccc54)nc(N4CCOCC4)nc32)CC1 [X-370]
- IC50 (PI3Kβ): > 1000 nM
- selectivity for PI3Kδ against other lipid kinases [1]: More than 1000 fold
